Assay results as given in patent US9198433B2, “Substituted benzene fungicides” (E I DU PONT DE NEMOURS AND COMPANY, priority 2007, dated 2015).
Marks after values point to notes of the source that are not given here.

Legend:
Type in all cases: in vivo
Alternaria solani = assay: Test H: tomato early blight, preventive spray on tomato seedlings, disease rating
Summary of the method: (§1)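 Tomato seedlings sprayed to run-off, as a preventive treatment, with compound suspended in acetone/water (50/50) containing 250 ppm Trem 014 surfactant; 200 ppm equals 500 g/ha. Disease then rated. Values are at 200 ppm unless marked * (40 ppm) or ** (50 ppm).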

Botrytis cinerea = assay: Test F: tomato Botrytis, preventive spray on tomato seedlings, disease rating; settings: 200 ppm
Summary of the method: as §1

Septoria tritici = assay: Test D: wheat leaf blotch, preventive spray on wheat seedlings, disease rating
Summary of the method: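 Wheat seedlings sprayed to run-off with compound in acetone/water containing 250 ppm Trem 014 (200 ppm ≈ 500 g/ha; some results at 40 or 50 ppm), inoculated next day with Septoria tritici spores. Held 48 h saturated at 24 °C, then 19 days at 20 °C before disease rating.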

Septoria nodorum = assay: Test C: wheat glume blotch, preventive spray on wheat seedlings, disease rating
Summary of the method: (§2)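 Disease ratings come from wheat seedlings sprayed preventively to run-off, mostly at 200 ppm, which corresponds to an application rate of 500 g/ha; certain entries used 40 ppm or 50 ppm. The carrier was 50/50 acetone/water with 250 ppm surfactant.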

[1] = system: Erysiphe graminis f. sp. tritici; assay: Test A: wheat powdery mildew, preventive spray on wheat seedlings, disease rating
Summary of the method: as §2

[2] = system: Puccinia recondita f. sp. tritici; assay: Test B: wheat leaf rust, preventive spray on wheat seedlings, disease rating
Summary of the method: as §2

[3] = 200 ppm, 100 = 100% disease control, 0 = no control relative to controls
[4] = 100 = 100% disease control, 0 = no control relative to controls
[5] = 40 ppm (*), 100 = 100% disease control, 0 = no control relative to controls

Row | SMILES | Percentage Disease Control, Test H (Alternaria solani; [3]) | Percentage Disease Control, Test F (Botrytis cinerea; [4]) | Percentage Disease Control, Test D (Septoria tritici; [5]) | Percentage Disease Control, Test C (Septoria nodorum; [3]) | Percentage Disease Control, Test A [1, 3] | Percentage Disease Control, Test B [2, 3] | Percentage Disease Control, Test D (Septoria tritici; [3]) | also measured
1 | COC(=O)NCc1cc(-c2cnn(Cc3ccccc3)c2)ccc1Cl [Cmpd 128] | 0% | 0% | 96* % | 82% | 29% | 98% |  | 
2 | COC(=O)NCc1cc(-c2cnn(Cc3ccccc3Cl)c2)ccc1Cl [Cmpd 129] | 0% | 0% | 92* % | 90% | 94% | 98% |  | 
3 | COC(=O)NCc1cc(-c2ccnc(Cl)n2)ccc1Cl [Cmpd 130] | 0% | 0% |  | 92% | 80% | 67% | 96% | 
4 | COC(=O)NCc1cc(-c2ccnc(-c3csc(C)n3)n2)ccc1Cl [Cmpd 131] | 0% | 0% |  | 0% | 0% | 0% | 13% | 
5 | COC(=O)NCc1cc(-c2ccnc(-c3ccc(C)cc3)n2)ccc1Cl [Cmpd 132] | 0% | 0% | 100* % |  | 80% |  |  | Percentage Disease Control, Test C (Septoria nodorum; [5]): 98* %; Percentage Disease Control, Test B [2, 5]: 95* %
6 | COC(=O)NCc1cc(-c2ccnc(-c3cccc(C)c3)n2)ccc1Cl [Cmpd 133] | 0% | 0% | 92* % | 93% | 94% | 93% |  | 
7 | COC(=O)NCc1cc(-c2ccnc(-c3ccccc3)n2)ccc1Cl [Cmpd 134] | 0% | 0% |  |  | 0% | 84% | 87% | Percentage Disease Control, Test C (Septoria nodorum; [5]): 96* %
8 | COC(=O)NCc1cc(-c2ccnc(C3CC3)n2)ccc1Cl [Cmpd 137] | 15% | 0% | 97* % |  | 95% | 99% |  | Percentage Disease Control, Test C (Septoria nodorum; [5]): 90* %
9 | COC(=O)NCc1cc(-c2ccnc(C(F)(F)F)n2)ccc1Cl [Cmpd 138] | 0% | 0% |  | 92% | 56% | 48% | 77% | 
10 | COC(=O)NCc1cc(-c2ccnc(OCc3ccccc3)n2)ccc1Cl [Cmpd 139] | 26% | 0% | 92* % |  | 87% |  |  | Percentage Disease Control, Test C (Septoria nodorum; [5]): 99* %; Percentage Disease Control, Test B [2, 5]: 100* %
11 | COC(=O)NCc1cc(-c2ccnn2-c2ccccc2)ccc1Cl [Cmpd 140] | 0% | 0% |  | 0% | 0% | 32% | 96% | 
12 | COC(=O)NCc1cc(-c2cc(C(F)(F)F)nn2C)ccc1Cl [Cmpd 141] | 0% | 0% |  | 82% | 96% | 89% | 98% | 
13 | COC(=O)NCc1cc(-c2cc(C(F)(F)F)nn2CCC(C)(C)C)ccc1Cl [Cmpd 142] | 16% | 0% |  | 0% | 85% | 55% | 92% | 
14 | CCCn1nc(C(F)(F)F)cc1-c1ccc(Cl)c(CNC(=O)OC)c1 [Cmpd 144] | 0% | 0% |  | 0% | 97% | 19% | 95% | 
15 | COC(=O)NCc1cc(-c2c[nH]nn2)ccc1Cl [Cmpd 145] | 15% | 0% |  | 0% | 0% | 0% | 30% | 
16 | COC(=O)NCc1cc(-c2cn(-c3ccc(Cl)cc3)nn2)ccc1Cl [Cmpd 148] | 0% | 46% | 98* % | 90% | 85% |  |  | Percentage Disease Control, Test B [2, 5]: 90* %
17 | COC(=O)NCc1cc(-c2cn(Cc3ccc(C)cc3)nn2)ccc1Cl [Cmpd 149] | 0% | 0% |  | 100% | 0% | 99% | 99% | 
18 | COC(=O)NCc1cc(-c2ccn(-c3ccc(C(C)=O)cc3)n2)ccc1Cl [Cmpd 150] | 92% | 0% |  | 100% | 71% | 98% | 99% | 
19 | COC(=O)NCc1cc(C(C)=NOC[Si](C)(C)c2ccccc2)ccc1Cl [Compound 15] |  |  |  |  |  |  |  | Percentage Disease Control, Test H (Alternaria solani; 200 ppm): 33%; Percentage Disease Control, Test F (Botrytis cinerea): 0%; Percentage Disease Control, Test D (Septoria tritici; 40 ppm (*)): 100* %; Percentage Disease Control, Test C (Septoria nodorum; 40 ppm (*)): 100* %; Percentage Disease Control, Test A ([1]; 40 ppm (*)): 100* %; Percentage Disease Control, Test B ([2]; 40 ppm (*)): 100* %
20 | COC(=O)NCc1cc(C(C)=NOC[Si](C)(C)c2ccc(F)cc2)ccc1Cl [Compound 16] |  |  |  |  |  |  |  | Percentage Disease Control, Test H (Alternaria solani; 40 ppm (*)): 95* %; Percentage Disease Control, Test F (Botrytis cinerea): 67%; Percentage Disease Control, Test D (Septoria tritici; 40 ppm (*)): 100* %; Percentage Disease Control, Test C (Septoria nodorum; 40 ppm (*)): 100* %; Percentage Disease Control, Test A ([1]; 40 ppm (*)): 99* %; Percentage Disease Control, Test B ([2]; 40 ppm (*)): 100* %
21 | COC(=O)NCc1cc(C(C)=NOC[Si](C)(C)Cc2ccccc2)ccc1Cl [Compound 17] |  |  |  |  |  |  |  | Percentage Disease Control, Test H (Alternaria solani; 200 ppm): 38%; Percentage Disease Control, Test F (Botrytis cinerea): 0%; Percentage Disease Control, Test D (Septoria tritici; 40 ppm (*)): 100* %; Percentage Disease Control, Test C (Septoria nodorum; 200 ppm): 100%; Percentage Disease Control, Test A ([1]; 200 ppm): 67%; Percentage Disease Control, Test B ([2]; 40 ppm (*)): 99* %
22 | COC(=O)NCc1cc(-c2cnn(Cc3ccc(C)cc3)n2)ccc1Cl [Compound 146] | 22% | 0% |  | 99% | 52% | 93% | 93% | 
23 | COC(=O)NCc1cc(-c2cnn(-c3ccc(Cl)cc3)n2)ccc1Cl [Compound 147] | 15% | 61% | 100* % |  |  |  |  | Percentage Disease Control, Test C (Septoria nodorum; [5]): 99* %; Percentage Disease Control, Test A [1, 5]: 100* %; Percentage Disease Control, Test B [2, 5]: 99* %
